According to patent US8993254B2, “Methods for evaluating risk of mother's milk or food inducing an onset of atopic dermatitis, and mother's milk or food with reduced risk of inducing an onset of atopic dermatitis” (Saitama Medical University, priority 2009, dated 2015):

Experiments:
THP-1 cells = test: Measurement of intracellular cAMP concentration in PMA-treated THP-1 cells; assay type: cell-based; conditions: THP-1 cells treated with PMA, co-incubated with 10 to 30 μg/ml (13 to 39 μM) of coenzyme A
Procedure: In a humid incubator under conditions of 37° C. and 5% CO2, THP-1 cells were cultured in an RPMI1640 medium supplemented with 10% fetal bovine serum, 1% penicillin and streptomycin, and 1% L-glutamine. The THP-1 cells were exposed to 50 ng/ml of PMA (phorbol 12-myristate 13-acetate) for 48 hours, followed by washing. Then, the cells were cultured at 37° C. in the presence of 1 mM 3-isobutyl-1-methyl-xanthine. After 10 minutes, the cells were stimulated with 30% mother's milk (AD: n=55, non-AD: n=55) for 10 minutes, and lysed with cell lysis buffer (Molecular Devices). In some experiments, THP-1 cells treated with 50 ng/ml of PMA for 48 hours were exposed to 10 μM prostaglandin E2 (PGE2). The intracellular cAMP level was measured using CatchPoint™ cyclicAMP fluorescent assay kit (Molecular Devices LLC) in accordance with the maker instruction. In some experiments, delta (Δ)-cAMP was calculated by subtracting the cAMP concentration in THP-1 stimulated with PMA without adjuvant stimulation from the cAMP concentration in THP-1 stimulated with PMA with adjuvant stimulation.

[1] = system: Human monocyte-derived dendritic cells (Mo-DCs); test: Analysis of T cell-differentiation using dendritic cells (mixed lymphocyte reaction, IFNγ and IL-5 ELISA); assay type: cell-based; conditions: Mo-DCs pretreated with 1 μg/ml of coenzyme A (FIG. 3B)
Procedure: Human Mo-DCs and CD45RA-positive naive T cells (purity of more than 99%) were prepared according to the previous report (Takagi, R. et al., J Immunol 181: 186-189, 2008).
The immature Mo-DCs were stimulated with 1 to 10% of a liquid fraction of mother's milk or 0 to 10 μg/ml of coenzyme A. Two days after culturing with the liquid fraction or coenzyme A, to induce a mixed lymphocyte reaction (MLR), the cell component was further cultured together with HLA-DR-nonshared allogenic CD4-positive naive T cells in an RPMI1640 medium supplemented with 10% human serum for 6 to 8 days. Then, the T cells were restimulated with an anti-CD3 antibody and an anti-CD28 antibody (BD Pharmingen Inc.). After 48 hours, the culture supernatant was collected to analyze IFNγ and IL-5 by ELISA using IFNγ and IL-5 ELISA kits (R&D systems, Inc.).

SJL/J mice = test: Mixed lymphocyte reaction using CD3ε-negative cells harvested from mice to which coenzyme A had been orally administered; assay type: in vivo
Procedure: SJL/J mice (H-2^s) and Nc/Nga mice (non H-2^s) were purchased from Charles River Inc. and Japan SLC, Inc., respectively. 50 μg/ml of coenzyme A was orally administered to the SJL/J mice. Two days later, CD3ε-negative cells were obtained from mesenteric lymph node cells using “[…]” (Miltenyi Biotec Inc.). On the same day, CD62L-positive naive CD4-positive T cells were obtained from the spleens of the Nc/Nga mice using “CD4^+ T cell isolation kit” and “CD62L^+ T cell isolation kit” (Miltenyi Biotec Inc.). Then, 1×10^4 CD3ε-negative cells and 1×10^5 allogenic CD62L-positive naive CD4-positive T cells were co-cultured in a 96-well flat-bottomed culture plate. A mixed lymphocyte reaction (MLR) was induced in an RPMI1640 medium supplemented with 10% FCS for 7 days. Next, the T cells were restimulated with an anti-CD3 antibody and an anti-CD28 antibody (Biolegends, Inc.). The culture supernatant were harvested 16 hours later, and analyzed for IFNγ, IL-4, and
IL-5 using IFNγ, IL-4 and IL-5 ELISA kits (R&D systems, Inc.).
Coenzyme A-containing drinking water (10 to 20 μg/kg/day) was orally administered to mice. […] cells were isolated from the mesenteric lymph node 2 days after the coenzyme A administration, and co-cultured with allogenic CD62L-positive naive CD4-positive T cells.

[2] = oral, drinking water 10 to 20 μg/kg/day, mesenteric lymph node cells isolated 2 days after administration (FIG. 4A)
[3] = treated mice, oral 10 to 20 μg/kg/day (FIG. 4B)

SMILES: CC(C)(COP(=O)(O)OP(=O)(O)OC[C@H]1O[C@@H](n2cnc3c(N)ncnc32)[C@H](O)[C@@H]1OP(=O)(O)O)[C@@H](O)C(=O)NCCC(=O)NCCS [coenzyme A]
- intracellular cAMP (THP-1 cells): elevated
- differentiation of allogenic naive CD4-positive T cells into Th2 cells [1]: differentiated into Th2 cells
- IFNγ production in T cells (MLR) (SJL/J mice; [2]): No statistically significant difference
- IL-4 production in T cells (MLR) (SJL/J mice; [2]): significantly induced
- IL-5 production in T cells (MLR) (SJL/J mice; [2]): significantly induced
- IL-4/IFNγ ratio (SJL/J mice; [3]): significantly high
- IL-5/IFN ratio (SJL/J mice; [3]): significantly high
